# According to article PMC9177545, “3-oxo-C12:2-HSL, quorum sensing molecule from human intestinal microbiota, inhibits pro-inflammatory pathways in immune cells via bitter taste receptors” (Scientific Reports, 2022):
# How the values were obtained:
# RAW264.7 cells = assay: Intracellular calcium assay (Fluo-4) in RAW264.7 cells; format: cell-based, murine; details: 1000 µM
# Description: RAW264.7 cells were seeded in black, clear-bottom 96-well plates (Costar) at 20,000 cells per well. The next day, release of intracellular Ca^2+ was measured using Fluo-4 (Fluo-4 Direct Calcium Assay; Life Technologies) according to the manufacturer’s instructions. Medium was discarded and 100 µL of 1 X Fluo-4 dye was incubated at 37 °C for 1 h in 5% CO2, protected from light. Then, basal fluorescence was measured using a fluorospectrometer (FLUOstar Omega; BMG Labtech), excitation at 485 nm and emission at 520 nm. Molecules of interest were then added with an electronic pipette; thapsigargin (10 µM, Sigma) as a positive control, 3-oxo-C12:2-HSL (1000 µM) or DMSO 0.5%; with 8 replicates per conditions for every experiment. The fluorescence signal was immediately measured every 80 s for 2 h. Results are expressed as a ratio of the fluorescence x times over the basal fluorescence (F/F0).
# RAW264.7 macrophages = assay: Cytokine mRNA levels by RT-qPCR in RAW264.7 macrophages stimulated with LPS and IFNγ; format: cell-based, murine; details: 50 µM, 2 h, vs control
# Description: RAW264.7 murine macrophage cells (ATCC, Manassas, Virginia, USA) were cultured between passage 12 and 25 in Dulbecco’s modified Eagle’s medium supplemented with 10% heat-inactivated fetal calf serum and 1% L-glutamine (ThermoFisher Scientific). The macrophages were seeded at 35,000 cells per well in 12-well plates (Falcon) for ELISA experiments or 110,000 cells per well in 6-well plates (Falcon) for cell lysates, upon reaching 80–90% confluence after 3-day culture. Cells were maintained at 37 °C with 5% CO2/air atmosphere and the media were changed every other day.
# Cells were exposed to 3-oxo-C12:2-HSL (synthesized as previously described[17]) or DMSO 0.1% as a control for different durations depending on the experiment, in the presence of the lactonase inhibitor 2-hydroxyquinoline (100 µM, Sigma-Aldrich), in order to limit the hydrolysis of the AHL lactone ring, as described previously[17],[18].
# (§1) In RAW264.7 cells, inflammation was triggered with LPS (10 ng/mL, Sigma) and IFNγ (10 U/mL, R&Dsystems) for 2 h or 6 h, depending on the experiments. PBMC were exposed to LPS (10 ng/mL) and AHL for 24 h. For TAS2R38 inhibition experiments, cells were exposed to TAS2R38 allosteric inhibitor probenecid (1 mM, Sigma) for one hour before adding AHLs and the inflammatory cocktail, without changing the media.
# Total RNA was extracted from RAW264.7 cells using TRIzol (Invitrogen) according to the manufacturer's instructions. Reverse Transcription (RT) was performed with 1 μg RNA using LunaScript® RT SuperMix Kit (NewEngland Biolabs). Semi-quantitative real-time PCR was performed with the Mx3000P Stratagene system using SYBR Green (Applied Biosystems) according to the manufacturer's procedures. Cyclophilin was used as the reference gene. After amplification, Ct were determined.
# TAS2R138 = molecular target: T1, TAS2R138 (Mus musculus, UniProt Q7TQA6); assay: TAS2R38/TAS2R138 inhibition experiment: TNFα secretion of RAW264.7 cells pre-treated with probenecid; format: cell-based; details: pre-treated with 1 mM probenecid one hour, then LPS, IFNγ and AHL six hours
# T1 construct: endogenous in cells; host or cells: RAW264.7 murine macrophages (ATCC)
# T1 sequence (Q7TQA6 1-331): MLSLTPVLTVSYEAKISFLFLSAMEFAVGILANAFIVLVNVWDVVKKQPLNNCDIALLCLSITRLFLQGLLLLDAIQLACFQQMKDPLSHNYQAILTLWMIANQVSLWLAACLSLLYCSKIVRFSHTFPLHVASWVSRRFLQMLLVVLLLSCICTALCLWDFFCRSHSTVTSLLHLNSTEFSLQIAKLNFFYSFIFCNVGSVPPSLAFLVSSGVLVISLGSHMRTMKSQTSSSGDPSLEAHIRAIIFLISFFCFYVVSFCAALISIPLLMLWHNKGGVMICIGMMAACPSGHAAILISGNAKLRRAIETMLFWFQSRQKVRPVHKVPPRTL
# Description: as §1
# At the end of cell treatment, the medium was centrifuged at 300g for 5 min at 4 °C. Supernatant was frozen at − 80 °C until ELISA assays. TNFα and IL-1β ELISA kits were purchased from R&D systems and performed according to the manufacturer’s instructions. Briefly, plates were coated with a capture antibody and incubated overnight. Wells were blocked using 1% bovine serum albumin-PBS solution (Sigma), then exposed to cell supernatants at room temperature for two hours. Wells were washed and incubated with the detection antibody for an additional two hours. After thorough washing, Streptavidin-HRP solution was added for 20 min. Wells were washed, then incubated with TMB (Biolegend) solution for 20 min and the reaction was stopped using 1 M H2SO4. Absorbance was measured by a spectrometer (FLUOstar Omega; BMG Labtech) at 450 nm and the absorbance at 540 nm was subtracted.
# JAK2 = JAK2 phosphorylation by Wes capillary electrophoresis in activated RAW264.7 macrophages; format: cell-based, murine; details: 50 µM, 2 h, LPS and IFNγ stimulated
# Description: as §1
# RAW264.7 cells were scraped in lysis buffer (20 mM Tris- HCl, pH 7.4, 5 mM EDTA, 0.15 M NaCl, 1% Triton X-100, 0.5% sodium deoxycholate) supplemented with protease inhibitor cocktail (Complete Mini; Roche, Boulogne-Billancourt, France) and phosphatase inhibitor cocktail (PhosSTOP, Sigma-Aldrich). Protein concentrations were determined using the BC Assay (Uptima/Interchim). Wes™ analyses (capillary electrophoresis system; ProteinSimple, San Jose, CA) were performed according to the manufacturer’s recommendations, and adequate protein concentrations and antibody dilutions were determined in preliminary assays to allow optimal quantitative conditions. […] Data were analysed using Compass for SW3.1 software (ProteinSimple).
# RAW264.7 cells and PBMC = assay: Cytotoxicity by lactate dehydrogenase release; format: cell-based; details: doses of AHL used in all experiments
# Description: Release of lactate dehydrogenase into the medium was measured to assess cellular toxicity. LDH concentration was measured using the Cytotoxicity Detection Kit (Roche, Boulogne-Billancourt, France) according to the manufacturer’s instructions. The media were centrifuged 5 min at 250g to remove any cells. 50 µL of reaction mixture was added to 50 µL of media supernatant in 96-well plates. After 10 min at room temperature, 25 µL of stop solution was added. Absorbance at 490 nm was determined with a microplate spectrometer (FLUOstar Omega; BMG Labtech). Results are expressed as absorbance arbitrary units.
# Caco-2/TC7 = test system: Caco-2/TC7; design: method as in PMID 30157234; details: Caco-2/TC7 stimulated by IL-1β ref 17; cited from earlier work
substance,measurement,setting,value
3-oxo-C12:2-HSL,slope of the calcium response curve vs control condition,"RAW264.7 cells; Fluo-4 F/F0, two hours",significantly higher
same,intracellular calcium level compared with the control,"RAW264.7 cells; basal state, Fluo-4, two hours, control DMSO 0.5%",increase
same,IL-10 expression (Il10 mRNA),RAW264.7 macrophages,strongly increased
same,Il1b mRNA level,RAW264.7 macrophages,reduced
same,Tnf mRNA level,RAW264.7 macrophages,reduced
same,anti-inflammatory effect (TNFα secretion) when TAS2R138 is inhibited,TAS2R138,abolished
same,phosphorylation level of JAK2 vs activated cells without AHL,JAK2,not significantly altered
same,"cytotoxicity, lactate dehydrogenase release compared to the control",RAW264.7 cells and PBMC,no significant difference
same,IL-8 production,Caco-2/TC7,decreased
